Several values for one entry are separate records, joined by “and”; a condition that tells them apart may be missing. Identical values can stand only once.
Test system: 817829-284-R-J1-PDC complex spheroid viability
Test: Anticancer human tumor 817829-284-R-J1-PDC patient-derived colon adenocarcinoma cell line growth inhibition [POLQ]
Details: for viability, T/C: stronger effect = lower value
Experimental: Multicellular complex tumor spheroid response to Polymerase (POL) inhibitors (novobiocin, ART-558, RP6685) in combination with a variety of drugs and investigational agents in selected tumor cell lines
The POL inhibitors (novobiocin, ART-558, and RP6685) were evaluated both individually and in combination with standard of care and investigational anticancer small molecules within a complex spheroid model of solid tumors. . Complex spheroids include a stromal component modeled by human endothelial cells (HUVEC) and fibroblasts modeled by human mesenchymal stem cells (MSCs). The concentration ranges selected for each drug and investigational agent were based upon clinically achievable concentrations if the clinical Cmax of the agent was known.
Compounds. The drugs and investigational agents: novobiocin (NSC847541), ART-558 (NSC835418), RP-6685 (NSC848927), peposertib (NSC802822), ceralasertib (NSC780249), elimusertib (NSC800525), camonsertib (NSC841442), AZD-1390 (NSC803789), olaparib (NSC753686), talazoparib (NSC767125), rucaparib (NSC756644), sotorasib (NSC818433), MRTX-1133 (NSC836407), SN-38 (NSC673596), topotecan (NSC609699), epotoside (NSC141540), doxorubicin (NSC123127), gemcitabine (NSC613327), 5-fluorouracil (NSC19893), paclitaxel (NSC125973), vemurafenib (NSC761431), MSA-2 (NSC828583), SN-011 (NSC837082), adavosertib (NSC754352), prexasertib (NSC758257), carboplatin (NSC241240) and oxaliplatin (NSC266046), were obtained from the National Cancer Institute (NCI) Developmental Therapeutics Program Chemical Repository (21). The FDA-approved anticancer drug set is available from the Developmental Therapeutics Program at https://dtp.cancer.gov/organization/dscb/obtaining/. […] The stock solutions were prepared in dimethyl sulfoxide (DMSO, Sigma-Aldrich, St. Louis, MO, cat. D2650), except for the platinum compounds which were prepared in saline (Quality Biological, Gaithersburg, MD, cat. 114-055-101), at 800-fold the tested concentration and stored at -70 degrees C prior to their use. All drugs and investigational agents were tested over a range starting from a high concentration at or near the clinical Cmax and decreasing in half-log increments. If the clinical Cmax for an agent had not been determined, the highest concentration tested was 10 microM, except for SN-38, which was tested at a high concentration of 1 microM.
Cell Culture. All cells were maintained in an incubator at 37 degrees C and 5% CO2 with 95% humidity. The PDC lines were cultured according to standard operating procedures established by the NCI PDMR (https://pdmr.cancer.gov). Table 3 of the manuscript, lists the cell lines along with the number of the three cell types plated to form the mct-spheroids and media for tumor cell growth. After thawing, all PDC lines, except 997537-175-T-J1-PDC and 415267-285-R-J2-PDC, were cultured in Matrigel-coated flasks prepared with a working solution of 1X Ham's F-12 nutrient mix, without supplementation (Thermo Fisher Scientific, cat. 11765054), 100 U/mL penicillin-streptomycin (Thermo Fisher Scientific, cat. 15140122), and 2.5% Matrigel (Corning Inc., Corning, NY, cat. 354248) for the first three passages. The two PDC lines 997537-175-T-J1-PDC and 415267-285-R-J2-PDC were cultured on uncoated flasks. The 857933-349-R-J2-PDC line was cultured in 6C/Colon 1B media containing advanced DMEM/F-12 (Thermo Fisher Scientific, cat. 12634028), 10 mM HEPES (Thermo Fisher Scientific, cat. 15630080), 1X GlutaMAX supplement (Thermo Fisher Scientific, cat. 35050061), 0.1 mg/mL primocin (InvivoGen, San Diego, CA, cat. ant-pm-2), 10% defined fetal bovine serum, heat inactivated (HyClone Laboratories Inc., Logan, UT, cat. SH30070.03HI), 50% L-WRN conditioned media (ATCC, cat. CRL-3276), 1.25 mM N-Acetyl-L-cysteine (Sigma-Aldrich, cat. A9165), 10 mM nicotinamide (Sigma-Aldrich, cat. N0636), 1X B-27 supplement (Thermo Fisher Scientific, cat. 17504044), 1X N-2 supplement (Thermo Fisher Scientific, cat. […]
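Further: spheroids exposed to compounds for 7 days.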
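Wherever viability, T/C is given: 100% = DMSO vehicle-treated spheroids.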

Cn1ncnc1[C@H]1c2n[nH]c(=O)c3cc(F)cc(c23)N[C@@H]1c1ccc(F)cc1 + Nc1ccc(C#CCN(C(=O)Cc2ncc(C(F)(F)F)cc2C(F)(F)F)c2ccc(F)cc2)nn1
IC50 (curve of first compound, second compound 0.0316 µM): 38.9 nM
IC50 (curve of first compound, second compound 0.1 µM): 43.5 nM
IC50 (curve of first compound, second compound 0.316 µM): 21.4 nM
IC50 (curve of first compound, second compound 1 µM): 37.5 nM
IC50 (curve of first compound, second compound 3.16 µM): 48.9 nM
IC50 (curve of first compound, second compound 10 µM): 26.5 nM
viability, T/C (second compound 0.0316 µM, first compound 0.000316 µM): 97.7%
viability, T/C (second compound 0.0316 µM, first compound 0.001 µM): 82.9%
viability, T/C (second compound 0.0316 µM, first compound 0.00316 µM): 85%
viability, T/C (second compound 0.0316 µM, first compound 0.01 µM): 63.8%
viability, T/C (second compound 0.0316 µM, first compound 0.0316 µM): 55.5%
viability, T/C (second compound 0.0316 µM, first compound 0.1 µM): 35%
viability, T/C (second compound 0.1 µM, first compound 0.000316 µM): 79.9%
viability, T/C (second compound 0.1 µM, first compound 0.001 µM): 89.2%
viability, T/C (second compound 0.1 µM, first compound 0.00316 µM): 76.1%
viability, T/C (second compound 0.1 µM, first compound 0.01 µM): 69.5%
viability, T/C (second compound 0.1 µM, first compound 0.0316 µM): 58.7%
viability, T/C (second compound 0.1 µM, first compound 0.1 µM): 30.9%
viability, T/C (second compound 0.316 µM, first compound 0.000316 µM): 107%
viability, T/C (second compound 0.316 µM, first compound 0.001 µM): 92.5%
viability, T/C (second compound 0.316 µM, first compound 0.00316 µM): 64.8%
viability, T/C (second compound 0.316 µM, first compound 0.01 µM): 64.2%
viability, T/C (second compound 0.316 µM, first compound 0.0316 µM): 47.4%
viability, T/C (second compound 0.316 µM, first compound 0.1 µM): 31.7%
viability, T/C (second compound 1 µM, first compound 0.000316 µM): 94.8%
viability, T/C (second compound 1 µM, first compound 0.001 µM): 93.2%
viability, T/C (second compound 1 µM, first compound 0.00316 µM): 69.2%
viability, T/C (second compound 1 µM, first compound 0.01 µM): 65.6%
viability, T/C (second compound 1 µM, first compound 0.0316 µM): 55.2%
viability, T/C (second compound 1 µM, first compound 0.1 µM): 37.1%
viability, T/C (second compound 3.16 µM, first compound 0.000316 µM): 87.3%
viability, T/C (second compound 3.16 µM, first compound 0.001 µM): 93.8%
viability, T/C (second compound 3.16 µM, first compound 0.00316 µM): 63.9%
viability, T/C (second compound 3.16 µM, first compound 0.01 µM): 67.4%
viability, T/C (second compound 3.16 µM, first compound 0.0316 µM): 58%
viability, T/C (second compound 3.16 µM, first compound 0.1 µM): 41%
viability, T/C (second compound 10 µM, first compound 0.000316 µM): 107%
viability, T/C (second compound 10 µM, first compound 0.001 µM): 80.1%
viability, T/C (second compound 10 µM, first compound 0.00316 µM): 80.5%
viability, T/C (second compound 10 µM, first compound 0.01 µM): 61.6%
viability, T/C (second compound 10 µM, first compound 0.0316 µM): 49.7%
viability, T/C (second compound 10 µM, first compound 0.1 µM): 32.4%

COc1cc2cc(C(=O)CCC(=O)O)sc2cc1OC
viability, T/C (compound 0.0316 µM): 114% and 112% and 90.4%
viability, T/C (compound 0.1 µM): 88.4% and 107% and 83.7%
viability, T/C (compound 0.316 µM): 94% and 105% and 84%
viability, T/C (compound 1 µM): 81.1% and 89.5% and 102%
viability, T/C (compound 3.16 µM): 100% and 110% and 98.6%
viability, T/C (compound 10 µM): 88.8% and 101% and 63.2%
IC50 (curve of compound): > 10000 nM

COc1cccc(OCCCN)c1-c1cc(Nc2cnc(C#N)cn2)n[nH]1
viability, T/C (compound 0.00316 µM): 33.5% and 96.3% and 91.2%
viability, T/C (compound 0.01 µM): 8.6% and 15.6% and 14.9%
viability, T/C (compound 0.0316 µM): 6.55% and 5.13% and 5.86%
viability, T/C (compound 0.1 µM): 4.87% and 4.67% and 4.64%
viability, T/C (compound 0.316 µM): 4.09% and 5.43% and 4.13%
viability, T/C (compound 1 µM): 3.68% (2×) and 3.24%
IC50 (curve of compound): < 3.16 nM and 6.13 nM and 5.89 nM

From PubChem BioAssay AID1963839 (Molecular Pharmacology Branch, DTP, NCI, 2024)
